*1 amine or outer side, *2 acyl side, *3 side chain or, on linkers, in order; H or OH if unused. Where a SMILES comes first, the peptide text is derived from it. Side-chain parts run from the residue outwards. [ ]: non-standard residue; d: D form. The star is where a group is joined. PEG28 = NCCOCCOCCOCCOCCOCCOCCOCCOCCOCCOCCOCCOCCOCCOCCOCCOCCOCCOCCOCCOCCOCCOCCOCCOCCOCCOCCOCCOCCC(=O)O; γGlu = O=C(O)[C@H](CCC(=O)[*:2])N[*:1]; Stearoyl = CCCCCCCCCCCCCCCCCC(=O)*; Palmitoyl = CCCCCCCCCCCCCCCC(=O)*; Nle = CCCC[C@H](N)C(=O)O; AEEA = NCCOCCOCC(=O)O; Aib = CC(C)(N)C(=O)O
The compounds below were run against T1, RXFP1 (Homo sapiens, UniProt Q9HBX9) (assay: OVCAR5 cAMP assay (HTRF), RXFP1 agonist activity). Details: OVCAR-5; maximal cAMP relative to H2-relaxin maximum (100%); read-out: EMax, OVCAR 5 cells (cAMP).
T1 construct: OVCAR5 cells expressing endogenous RXFP1; endogenous in cells; host or cells: OVCAR5 cells
T1 sequence (Q9HBX9 1-757): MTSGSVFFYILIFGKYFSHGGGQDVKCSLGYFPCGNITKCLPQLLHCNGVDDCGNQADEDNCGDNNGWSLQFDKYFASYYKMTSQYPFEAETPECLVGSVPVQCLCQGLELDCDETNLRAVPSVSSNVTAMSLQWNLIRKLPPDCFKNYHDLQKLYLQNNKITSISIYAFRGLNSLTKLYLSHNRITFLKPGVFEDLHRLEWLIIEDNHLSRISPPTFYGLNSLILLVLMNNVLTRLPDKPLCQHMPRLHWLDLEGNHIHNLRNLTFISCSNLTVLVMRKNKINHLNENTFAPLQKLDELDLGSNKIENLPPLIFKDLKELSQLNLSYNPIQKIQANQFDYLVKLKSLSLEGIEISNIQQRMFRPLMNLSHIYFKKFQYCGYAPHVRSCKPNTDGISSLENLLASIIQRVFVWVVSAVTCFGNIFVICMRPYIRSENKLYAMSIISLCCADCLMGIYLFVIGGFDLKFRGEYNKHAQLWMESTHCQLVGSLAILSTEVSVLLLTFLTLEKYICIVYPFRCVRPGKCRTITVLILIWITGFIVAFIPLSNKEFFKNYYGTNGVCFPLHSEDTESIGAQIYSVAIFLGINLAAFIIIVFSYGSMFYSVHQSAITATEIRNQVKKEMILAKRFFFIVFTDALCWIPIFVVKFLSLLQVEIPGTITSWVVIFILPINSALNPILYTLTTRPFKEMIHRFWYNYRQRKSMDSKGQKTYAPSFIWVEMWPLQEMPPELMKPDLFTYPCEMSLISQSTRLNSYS
Type: cell-based
In short: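 cAMP accumulation readout: after 1 mM IBMX for 40 min, endogenous-RXFP1 OVCAR5 cells got rising peptide concentrations without FCS, 30 min, 37° C, then lysis with HTRF cAMP reagents. Nonlinear regression gave EC50; Emax expressed relative to H2-relaxin maximum, same occasion.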
Compound `CCCCCCCCCCCCCCCCCC(=O)N[C@@H](CCC(=O)N[C@@H](CCC(=O)N[C@@H](CCC(=O)NCCCC[C@H](NC(=O)CCOCCOCCOCCOCCOCCOCCOCCOCCOCCOCCOCCOCCOCCOCCOCCOCCOCCOCCOCCOCCOCCOCCOCCOCCOCCOCCOCCOCCNC(=O)[C@H](CCCCN)NC(=O)[C@H](CCCCN)NC(=O)[C@H](CCCNC(=N)N)NC(=O)C(C)(C)NC(=O)[C@H](CO)NC(=O)[C@H](Cc1c[nH]c2ccccc12)NC(=O)[C@@H](NC(=O)[C@H](CO)NC(=O)[C@H](CCCC)NC(=O)CNC(=O)[C@H](CCC(=O)O)NC(=O)C(C)(C)NC(=O)C(C)(C)NC(=O)[C@@H](NC(=O)[C@H](CCCCNC(C)=O)NC(=O)[C@H](C)NC(=O)[C@H](CCCNC(=N)N)NC(=O)[C@@H](NC(=O)[C@H](CCCCN)NC(=O)[C@H](CCC(=O)O)NC(=O)[C@H](CCCNC(=N)N)NC(=O)CNC(=O)[C@H](CCC(=O)O)NC(=O)[C@H](CC(C)C)NC(C)=O)C(C)C)[C@@H](C)CC)[C@@H](C)O)C(N)=O)C(=O)O)C(=O)O)C(=O)O` [compound 48] (Ac-LEGREKVRAK(Ac)I[Aib][Aib]EG[Nle]STWS[Aib]RKK[PEG28]K([γGlu-γGlu-γGlu-Stearoyl])-NH2) has an Emax of 99%.
`CCCCCCCCCCCCCCCCCC(=O)N[C@@H](CCC(=O)N[C@@H](CCC(=O)N[C@@H](CCC(=O)NCCCC[C@H](NC(=O)CCOCCOCCOCCOCCOCCOCCOCCOCCOCCOCCOCCOCCOCCOCCOCCOCCOCCOCCOCCOCCOCCOCCOCCOCCOCCOCCOCCOCCNC(=O)[C@H](CCCCNC(C)=O)NC(=O)[C@H](CCCCN)NC(=O)[C@H](CCCNC(=N)N)NC(=O)C(C)(C)NC(=O)[C@H](CO)NC(=O)[C@H](Cc1c[nH]c2ccccc12)NC(=O)[C@@H](NC(=O)[C@H](CO)NC(=O)[C@H](CCCC)NC(=O)CNC(=O)[C@H](CCC(=O)O)NC(=O)C(C)(C)NC(=O)C(C)(C)NC(=O)[C@@H](NC(=O)[C@H](CCCCNC(C)=O)NC(=O)[C@H](C)NC(=O)[C@H](CCCNC(=N)N)NC(=O)[C@@H](NC(=O)[C@H](CCCCN)NC(=O)[C@H](CCC(=O)O)NC(=O)[C@H](CCCNC(=N)N)NC(=O)CNC(=O)[C@H](CCC(=O)O)NC(=O)[C@H](CC(C)C)NC(C)=O)C(C)C)[C@@H](C)CC)[C@@H](C)O)C(N)=O)C(=O)O)C(=O)O)C(=O)O` [compound 49] (Ac-LEGREKVRAK(Ac)I[Aib][Aib]EG[Nle]STWS[Aib]RKK(Ac)[PEG28]K([γGlu-γGlu-γGlu-Stearoyl])-NH2) showed an Emax of 106%.
Work on `CCCCCCCCCCCCCCCC(=O)NCCOCCOCC(=O)NCCCC[C@H](NC(=O)[C@H](CCCCN)NC(=O)[C@H](CCCNC(=N)N)NC(=O)C(C)(C)NC(=O)[C@H](CO)NC(=O)[C@H](Cc1c[nH]c2ccccc12)NC(=O)[C@@H](NC(=O)[C@H](CO)NC(=O)[C@H](CCCC)NC(=O)CNC(=O)[C@H](CCC(=O)O)NC(=O)C(C)(C)NC(=O)C(C)(C)NC(=O)[C@@H](NC(=O)[C@H](CCC(N)=O)NC(=O)[C@H](C)NC(=O)[C@H](CCCNC(=N)N)NC(=O)[C@@H](NC(=O)[C@H](CCCCN)NC(=O)[C@H](CCC(=O)O)NC(=O)[C@H](CCCNC(=N)N)NC(=O)CNC(=O)[C@H](CCC(=O)O)NC(=O)[C@H](CC(C)C)NC(C)=O)C(C)C)[C@@H](C)CC)[C@@H](C)O)C(N)=O` [compound 50] (Ac-LEGREKVRAQI[Aib][Aib]EG[Nle]STWS[Aib]RKK([AEEA-Palmitoyl])-NH2) yielded an Emax of 95%.
Work on `CCCCCCCCCCCCCCCCCC(=O)NCCOCCOCC(=O)NCCOCCOCC(=O)NCCCC[C@H](NC(=O)[C@H](CCCCNC(C)=O)NC(=O)[C@H](CCCCN)NC(=O)[C@H](CCCNC(=N)N)NC(=O)C(C)(C)NC(=O)[C@H](CO)NC(=O)[C@H](Cc1c[nH]c2ccccc12)NC(=O)[C@@H](NC(=O)[C@H](CO)NC(=O)[C@H](CCCC)NC(=O)CNC(=O)[C@H](CCC(=O)O)NC(=O)C(C)(C)NC(=O)C(C)(C)NC(=O)[C@@H](NC(=O)[C@H](CCC(N)=O)NC(=O)[C@H](C)NC(=O)[C@H](CCCNC(=N)N)NC(=O)[C@@H](NC(=O)[C@H](CCCCN)NC(=O)[C@H](CCC(=O)O)NC(=O)[C@H](CCCNC(=N)N)NC(=O)CNC(=O)[C@H](CCC(=O)O)NC(=O)[C@H](CC(C)C)NC(C)=O)C(C)C)[C@@H](C)CC)[C@@H](C)O)C(N)=O` [compound 51] (Ac-LEGREKVRAQI[Aib][Aib]EG[Nle]STWS[Aib]RKK(Ac)K([AEEA-AEEA-Stearoyl])-NH2) yielded an Emax of 100%.
Compound `CCCCCCCCCCCCCCCCCC(=O)NCCOCCOCC(=O)NCCOCCOCC(=O)NCCOCCOCC(=O)NCCCC[C@H](NC(=O)[C@H](CCCCNC(C)=O)NC(=O)[C@H](CCCCN)NC(=O)[C@H](CCCNC(=N)N)NC(=O)C(C)(C)NC(=O)[C@H](CO)NC(=O)[C@H](Cc1c[nH]c2ccccc12)NC(=O)[C@@H](NC(=O)[C@H](CO)NC(=O)[C@H](CCCC)NC(=O)CNC(=O)[C@H](CCC(=O)O)NC(=O)C(C)(C)NC(=O)C(C)(C)NC(=O)[C@@H](NC(=O)[C@H](CCC(N)=O)NC(=O)[C@H](C)NC(=O)[C@H](CCCNC(=N)N)NC(=O)[C@@H](NC(=O)[C@H](CCCCN)NC(=O)[C@H](CCC(=O)O)NC(=O)[C@H](CCCNC(=N)N)NC(=O)CNC(=O)[C@H](CCC(=O)O)NC(=O)[C@H](CC(C)C)NC(C)=O)C(C)C)[C@@H](C)CC)[C@@H](C)O)C(N)=O` [compound 52] (Ac-LEGREKVRAQI[Aib][Aib]EG[Nle]STWS[Aib]RKK(Ac)K([AEEA-AEEA-AEEA-Stearoyl])-NH2) has an Emax of 98%.
With `CCCCCCCCCCCCCCCC(=O)N[C@@H](CCC(=O)NCCOCCOCC(=O)NCCCC[C@H](NC(=O)[C@H](CCCCN)NC(=O)[C@H](CCCNC(=N)N)NC(=O)C(C)(C)NC(=O)[C@H](CO)NC(=O)[C@H](Cc1c[nH]c2ccccc12)NC(=O)[C@@H](NC(=O)[C@H](CO)NC(=O)[C@H](CCCC)NC(=O)CNC(=O)[C@H](CCC(=O)O)NC(=O)C(C)(C)NC(=O)C(C)(C)NC(=O)[C@@H](NC(=O)[C@H](CCC(N)=O)NC(=O)[C@H](C)NC(=O)[C@H](CCCNC(=N)N)NC(=O)[C@@H](NC(=O)[C@H](CCCCN)NC(=O)[C@H](CCC(=O)O)NC(=O)[C@H](CCCNC(=N)N)NC(=O)CNC(=O)[C@H](CCC(=O)O)NC(=O)[C@H](CC(C)C)NC(C)=O)C(C)C)[C@@H](C)CC)[C@@H](C)O)C(N)=O)C(=O)O` [compound 53] (Ac-LEGREKVRAQI[Aib][Aib]EG[Nle]STWS[Aib]RKK([AEEA-γGlu-Palmitoyl])-NH2) the Emax was 97%.
`CCCCCCCCCCCCCCCC(=O)N[C@@H](CCC(=O)N[C@@H](CCC(=O)NCCOCCOCC(=O)NCCCC[C@H](NC(=O)[C@H](CCCCN)NC(=O)[C@H](CCCNC(=N)N)NC(=O)C(C)(C)NC(=O)[C@H](CO)NC(=O)[C@H](Cc1c[nH]c2ccccc12)NC(=O)[C@@H](NC(=O)[C@H](CO)NC(=O)[C@H](CCCC)NC(=O)CNC(=O)[C@H](CCC(=O)O)NC(=O)C(C)(C)NC(=O)C(C)(C)NC(=O)[C@@H](NC(=O)[C@H](C)NC(=O)[C@H](C)NC(=O)[C@H](CCCNC(=N)N)NC(=O)[C@@H](NC(=O)[C@H](CCCCN)NC(=O)[C@H](CCC(=O)O)NC(=O)[C@H](CCCNC(=N)N)NC(=O)CNC(=O)[C@H](CCC(=O)O)NC(=O)[C@H](CC(C)C)NC(=O)[C@H](CCC(=O)O)NC(C)=O)C(C)C)[C@@H](C)CC)[C@@H](C)O)C(N)=O)C(=O)O)C(=O)O` [compound 54] (Ac-ELEGREKVRAAI[Aib][Aib]EG[Nle]STWS[Aib]RKK([AEEA-γGlu-γGlu-Palmitoyl])-NH2) gave an Emax of 98%.
